# Measurements published in patent US9096492B2, “Hydrated N-fullerene amino acids, method for producing the latter, and pharmaceutical compositions on the basis thereof” (priority 2011, dated 2015).
# Several values for one entry are separate records, joined by “and”; a condition that tells them apart may be missing. Equal values may be shown once. Read-outs that look alike come from different tables or passages of the source.
# Columns and labels:
# [1] = test system: ascites Ehrlich carcinoma cells; test: Apoptosis in ascites Ehrlich carcinoma cells of treated mice (cytofluorimetric analysis); assay type: in vivo
# solid Ehrlich carcinoma = test: Solid Ehrlich carcinoma in white mice, tumor size dynamics; details: Cisplatin 5 mg/kg once
# [2] = test system: Ehrlich ascites carcinoma; test: Ehrlich ascites carcinoma in white mice, body weight dynamics
# [3] = test system: A/Swine/1976/31 (H1N1) influenza virus; assay type: in vivo, mice; details: Tamiflu 20 mg/kg; for Infectious virus titer (log10EID50/20 mg tissue): lung tissue
# [4] = test system: HIV, HSV, and influenza virus; test: Antiviral activity of the Example 3 compound; details: against HIV
# Excerpt: The antiviral activity of the compound was studied against HIV, HSV, and influenza virus; its antitumor activity was also studied. The compound has high antitumor and antiviral activities against all of the aforementioned viruses. Preferred example embodiments of the invention are given below.
# [5] = Antitumor activity of the Example 3 compound
# [6] = Solubility of the isolated product
# [7] = ascites cells having large sizes and granularity (tumor cells)
# [8] = ascites cells of moderate size and granularity
compound,measurement,setting,value
"N.N.[Cl][Pt][Cl] [Cisplatin, reference compound]",AnV^+ 7AAD^+ (late apoptosis),[1]; [7],72.8 ± 10.9%
same,AnV^+ 7AAD^− (early apoptosis),[1]; [7],0.3 ± 0.3%
same,AnV^−7AAD^+ (necrosis),[1]; [7],26.6% and 26.6 ± 11.1%
same,AnV^−7AAD^− (living cells),[1]; [7],0.4 ± 0.2%
same,Percent amount of cells with the phenotype AnV^+ 7AAD^+ (late apoptosis),[1]; [8],3.5 ± 2.4%
same,Percent amount of cells with the phenotype AnV^+ 7AAD^− early apoptosis,[1]; [8],41.1 ± 11.3%
same,Percent amount of cells with the phenotype AnV^−7AAD^+ (necrosis),[1]; [8],0.1 ± 0.2%
same,Percent amount of cells with the phenotype AnV^−7AAD^− (living cells),[1]; [8],55.2 ± 11.0%
same,Tumor size (mm^3),solid Ehrlich carcinoma; day 8 post transplantation,56.5 mm^3
same,Tumor size (mm^3),solid Ehrlich carcinoma; day 13 post transplantation,249.2 mm^3
same,Tumor size (mm^3),solid Ehrlich carcinoma; day 17 post transplantation,464.3 mm^3
same,Tumor size (mm^3),solid Ehrlich carcinoma; day 21 post transplantation,1071.9 mm^3
same,Tumor size (mm^3),solid Ehrlich carcinoma; day 24 post transplantation,1743.3 mm^3
same,Tumor size (mm^3),solid Ehrlich carcinoma; day 28 post transplantation,1269.4 mm^3
same,Animal body weight,[2]; day 1 post tumor transplantation,19.1 ± 5 g
same,Animal body weight,[2]; day 3 post tumor transplantation,19.3 ± 2.7 g
same,Animal body weight,[2]; day 5 post tumor transplantation,19.4 ± 2.5 g
same,Animal body weight,[2]; day 8 post tumor transplantation,19.8 ± 2.2 g
same,Animal body weight,[2]; day 10 post tumor transplantation,20.7 ± 2.4 g
same,Animal body weight,[2]; day 13 post tumor transplantation,21.4 ± 1.5 g
same,Animal body weight,[2]; day 15 post tumor transplantation,21.8 ± 1.6 g
"CCOC(=O)C1=C[C@@H](OC(CC)CC)[C@H](NC(C)=O)[C@@H](N)C1.O=P(O)(O)O [Tamiflu, ethyl(3R,4R,5S)-4-acetamido-5-amino-3-(1-ethylpropoxy)-1-cyclohexene-1-carboxylate phosphate, reference compound]",Average lifetime (LD),"[3]; Summary dose, n=26",12.2 days
same,Increase in LD,"[3]; Summary dose, n=26",3.6 days
same,Index of protection,"[3]; Summary dose, n=26",62.8
same,"Mortality rate, %","[3]; Summary dose, n=26",26.9%
same,Number of survivors,"[3]; Summary dose, n=26",19
same,Size of chronic post-influenza pneumonia sites (% of the total surface area of the lungs),"[3]; the lower of the virus doses used, day 15",20 ± 5%
same,Average lifetime (LD),"[3]; virus 1 LD50, n=13",13.5 days
same,Increase in LD,"[3]; virus 1 LD50, n=13",2.9 days
same,Index of protection,"[3]; virus 1 LD50, n=13",71.2
same,"Mortality rate, %","[3]; virus 1 LD50, n=13",15.4%
same,Number of survivors,"[3]; virus 1 LD50, n=13",11
same,Average lifetime (LD),"[3]; virus 10 LD50, n=13",11.0 days
same,Increase in LD,"[3]; virus 10 LD50, n=13",4.4 days
same,Index of protection,"[3]; virus 10 LD50, n=13",58.6
same,"Mortality rate, %","[3]; virus 10 LD50, n=13",38.5%
same,Number of survivors,"[3]; virus 10 LD50, n=13",8
same,Infectious virus titer (log10EID50/20 mg tissue),[3]; virus dose 1 LD50,3.1 ± 0.1 log10EID50/20 mg tissue
same,Infectious virus titer (log10EID50/20 mg tissue),[3]; virus dose 5 LD50,3.8 ± 0.3 log10EID50/20 mg tissue
N-fullerene tris(8-aminooctanoic acid hydrate) [Example 3],antiviral activity,[4],high
same,antitumor activity,[5],high
N-fullerene tris-ω-aminoenanthic acid) hydrate [Example 2],solubility in CH3CN:H2O (1:10),[6],soluble
same,solubility in DMF-H2O (1:100),[6],soluble
same,solubility in water,[6],soluble
